Measured values published in US20200246317A1, “METHODS OF TREATING DIABETIC NEUROPATHY WITH A THIAZOLINE ANTI-HYPERALGESIC AGENT” (CERSCI THERAPEUTICS, INC., priority 2019, published 2020).
Counter-ions that a name gives are not always drawn.

Legend:
[1] = tested on: streptozotocin (STZ)-induced diabetic rats; experiment: Mechanical thresholds in streptozotocin (STZ)-induced diabetic rats; format: in vivo, rat
Procedure: Experiments were conducted to determine the effect of Compound 1 in streptozotocin (STZ)-induced diabetic rats. In the first experiment, after obtaining mechanical threshold baselines, STZ (50 mg/kg IV) was administered (Day −7). Two days later, blood glucose levels were measured and animals that were hyperglycemic (>250 mg/dL) continued in the study. On Day 0 the baseline for mechanical thresholds prior to dosing with test articles was established for the rats. Compound 1 (10, 30, and 100 mg/kg PO), gabapentin (100 mg/kg PO) or vehicle was then administered daily for 5 days. On Day 0 mechanical thresholds were obtained at 1, 3, and 6 h post-dose. On Day 1 mechanical thresholds were measured immediately prior to dosing and then 3 h post-dose. The same regimen was followed on Day 3.
In a subsequent study, the same STZ paradigm was followed. However, in addition to the 100 mg/kg Compound 1 group, two additional cohorts received the Compound 1 100 mg/kg dose split into two or three doses per day with 50 mg/kg BID and 33 mg/kg TID. In addition to the gabapentin (100 mg/kg PO) group, a separate cohort received duloxetine (30 mg/kg PO). Additionally, in this study mechanical threshold testing was implemented every day immediately prior to dosing and 2 h post-dose for 7 days.

[2] = tested on: models of painful diabetic neuropathy; experiment: Models of painful diabetic neuropathy (overview); format: in vivo; settings: upon repeated dosing
[3] = Chemical-based assays of peroxynitrite (PN) oxidation (luminol); format: biochemical
[4] = Models of protein nitration; format: biochemical; settings: physiological conditions (neutral pH)
[5] = tested on: lactoperoxidase oxidation (mediated by peroxide); experiment: Lactoperoxidase oxidation (mediated by peroxide); format: biochemical; settings: physiological conditions (neutral pH)
Pharmacokinetics in dog = format: in vivo
Procedure: Similar conditions were used to validate a bioanalytical method in dog plasma also using 50 μL of plasma. In both assays, a deuterated (Compound 1-d4) internal standard was used.

[6] = In vivo epimerization by chiral methods
[7] = Stability in hepatocytes, dog; format: in vitro ADME
[8] = Stability in hepatocytes, human; format: in vitro ADME
OATP1B1 = biological target: T1, OATP1B1 (Homo sapiens, UniProt Q9Y6L6); experiment: Inhibition of transporters, OATP1B1 (HEK293 cells); format: in vitro ADME
T1 construct: expressed in transfected cells; host or cells: HEK293 cells
T1 sequence (Q9Y6L6 1-691): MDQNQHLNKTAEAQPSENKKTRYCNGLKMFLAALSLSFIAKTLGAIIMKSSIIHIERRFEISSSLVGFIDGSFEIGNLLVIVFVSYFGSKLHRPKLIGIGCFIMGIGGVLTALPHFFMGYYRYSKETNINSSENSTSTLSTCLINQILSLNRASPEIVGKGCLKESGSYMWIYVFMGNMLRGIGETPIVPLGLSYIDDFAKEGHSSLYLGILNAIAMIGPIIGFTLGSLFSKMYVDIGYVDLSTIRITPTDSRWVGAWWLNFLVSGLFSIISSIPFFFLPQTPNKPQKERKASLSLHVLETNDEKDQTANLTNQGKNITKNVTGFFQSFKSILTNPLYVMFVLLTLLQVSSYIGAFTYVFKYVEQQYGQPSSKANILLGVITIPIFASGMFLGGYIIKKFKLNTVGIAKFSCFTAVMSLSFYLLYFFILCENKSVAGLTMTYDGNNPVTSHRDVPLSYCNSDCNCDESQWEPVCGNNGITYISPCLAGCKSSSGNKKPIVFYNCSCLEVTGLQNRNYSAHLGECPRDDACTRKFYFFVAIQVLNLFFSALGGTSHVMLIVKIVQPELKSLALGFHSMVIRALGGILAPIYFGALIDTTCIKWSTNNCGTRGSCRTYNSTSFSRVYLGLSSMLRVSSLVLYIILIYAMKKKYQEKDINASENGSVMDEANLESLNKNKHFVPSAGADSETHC

OATP1B3 = biological target: T2, OATP1B3 (Homo sapiens, UniProt Q9NPD5); experiment: Inhibition of transporters, OATP1B3 (HEK293 cells); format: in vitro ADME
T2 construct: expressed in transfected cells; host or cells: HEK293 cells
T2 sequence (Q9NPD5 1-702): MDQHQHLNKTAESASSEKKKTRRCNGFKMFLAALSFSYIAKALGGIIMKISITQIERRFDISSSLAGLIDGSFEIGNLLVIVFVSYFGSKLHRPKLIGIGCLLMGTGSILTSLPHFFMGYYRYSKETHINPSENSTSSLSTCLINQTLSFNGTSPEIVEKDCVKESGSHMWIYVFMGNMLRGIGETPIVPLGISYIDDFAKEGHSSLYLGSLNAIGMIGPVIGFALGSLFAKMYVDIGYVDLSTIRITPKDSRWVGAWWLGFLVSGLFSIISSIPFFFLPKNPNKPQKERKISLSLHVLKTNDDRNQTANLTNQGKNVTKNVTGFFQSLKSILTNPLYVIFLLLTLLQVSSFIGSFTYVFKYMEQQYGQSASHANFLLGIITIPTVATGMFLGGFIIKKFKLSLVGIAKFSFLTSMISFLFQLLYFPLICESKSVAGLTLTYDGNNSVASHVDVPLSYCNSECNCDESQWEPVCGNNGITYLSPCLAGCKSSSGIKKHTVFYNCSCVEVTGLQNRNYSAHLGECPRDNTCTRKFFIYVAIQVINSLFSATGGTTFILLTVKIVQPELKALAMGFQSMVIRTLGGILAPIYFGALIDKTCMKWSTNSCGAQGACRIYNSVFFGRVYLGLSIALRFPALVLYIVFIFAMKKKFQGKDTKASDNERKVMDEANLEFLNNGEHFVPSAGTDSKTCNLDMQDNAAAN

Q: With `CC1(C)SC(Nc2ccccc2O)=N[C@@H]1C(=O)O` [Compound 1, (R)-2-(2-hydroxyphenylamino)-5,5-dimethyl-4,5-dihydrothiazole-4-carboxylic acid mono-hydrochloride] as the compound, how does the “reversal of allodynia (mechanical threshold relative to vehicle)” value ([1]; first experiment, 10, 30, 100 mg/kg PO daily, subsequent days) read?
A: statistically-significant

Q: What about the “reversal of allodynia (mechanical threshold)” value ([1]; first experiment, Compound 1 10, 30, 100 mg/kg PO, gabapentin 100 mg/kg PO daily, Day 0 (gabapentin: 1 h post-dose on Day 0 and all time points thereafter)) of the same compound?
A: non-significant reversal of allodynia

Q: What about the “effect on mechanical threshold compared with gabapentin” value ([1]; first experiment, subsequent days, gabapentin 100 mg/kg PO) of the same compound?
A: comparable to gabapentin

Q: What about the effect on allodynia ([1]; rat model of diabetic neuropathy, streptozotocin-induced (overview)) of the same compound?
A: alleviates allodynia

Q: What about the “difference between dosing regimens” value ([1]; subsequent study, 100 mg/kg QD vs 50 mg/kg BID vs 33 mg/kg TID) of the same compound?
A: no clear difference

Q: What about the “reversal of allodynia (mechanical threshold)” value ([1]; subsequent study, 7 days, Compound 1 100 mg/kg QD, 50 mg/kg BID, 33 mg/kg TID, gabapentin 100 mg/kg PO, duloxetine 30 mg/kg PO) of the same compound?
A: reversed allodynia upon continued daily dosing reaching statistical significance from Day 1 and beyond

Q: What about the effect on allodynia [2] of the same compound?
A: reverses allodynia

Q: And the “PN-mediated oxidation of small-molecule organic substrates such as luminol” value [3]?
A: inhibits PN-mediated oxidation

Q: What about the removal of peroxynitrite [4] of the same compound?
A: catalytically remove peroxynitrite

Q: And the removal of peroxynitrite [5]?
A: catalytically remove peroxynitrite

Q: What about the “bioavailability after oral administration” value (Pharmacokinetics in dog) of the same compound?
A: bioavailable

Q: What about the epimerization in vivo [6] of the same compound?
A: no epimerization

Q: What about the stability in hepatocytes [7] of the same compound?
A: stable

Q: What about the stability in hepatocytes [8] of the same compound?
A: stable

Q: What about the “inhibition of OATP1B1 (in words)” value (OATP1B1) of the same compound?
A: does not inhibit

Q: And the “inhibition of OATP1B3 (in words)” value (OATP1B3)?
A: does not inhibit
